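Grown in 96-well plates, cells were treated for 48 hours with each compound at five concentrations. Insufficient inhibition: endpoint recorded as highest concentration tested. The concentration for 50% growth inhibition is given as GI50. TGI denotes the concentration required for complete inhibition of growth.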
Tests used:
Experiment in all cases: NCI anticancer screen, dose series, 48 h
[1] = test system: HS 578T breast
[2] = test system: MDA-MB-231 breast
[3] = test system: RXF 393 renal
[4] = test system: MCF7 breast
[5] = test system: SR leukemia
[6] = test system: MDA-MB-435
[7] = test system: UACC-62 melanoma
[8] = test system: MOLT-4 leukemia
[9] = test system: DMS 273 small cell lung
[10] = test system: SNB-78 CNS
[11] = test system: KM20L2 colon
[12] = test system: HOP-18 NSCLC

Compound	TGI [1]	TGI [2]	TGI [3]	TGI [4]	TGI [5]	TGI [6]	TGI [7]	TGI [8]	TGI [9]	TGI [10]	TGI [11]	TGI [12]	GI50 [1]	GI50 [8]	GI50 [4]	GI50 [2]	GI50 [3]	GI50 [5]	GI50 [6]	GI50 [7]
O=C(O)CS(=O)c1ccc2c3c(cccc13)C(=O)c1ccccc1-2 (configuration not stated)	> 100 µM	> 100 µM	> 100 µM	> 100 µM	> 100 µM	> 100 µM	> 100 µM													
O=C(Nc1ccc(Cl)cc1)c1cccc([N+](=O)[O-])c1O			6.67 µM		31.5 µM		17.6 µM	10.1 µM	23.3 µM	> 37.5 µM	98.5 µM	> 100 µM								
COc1cc(C(=O)O[C@H](C(=O)NCCNC(=O)[C@@H](OC(=O)c2cc(OC)cc3c(C)cccc23)[C@]2(C)CO2)[C@]2(C)CO2)c2cccc(C)c2c1	> 100 µM			0.0238 µM		0.696 µM		> 100 µM					0.319 µM	< 0.01 µM	< 0.01 µM					
NC(Cc1ccccc1)=NCC(=O)O	> 100 µM	> 100 µM	> 100 µM	> 100 µM		> 100 µM	> 100 µM	> 100 µM												
O=C(Nc1ccc(-n2cc(-c3ccncc3)c(-c3ccc(O)c(Cl)c3)n2)cc1)c1cc(Cl)cc(Cl)c1	6.52 µM	1.45 µM	1.13 µM	> 32.5 µM	> 32.5 µM	> 32.5 µM	> 32.5 µM	> 32.5 µM					0.939 µM	1.29 µM	3.33 µM	0.647 µM	0.575 µM	1.36 µM	1.87 µM	3.01 µM
C\C=C/C=C/C=C/C(=O)O			> 100 µM				> 100 µM	> 100 µM	> 100 µM	> 100 µM	> 100 µM	> 100 µM								
